Laboratory results as given in patent US7998965B2, “Glutamate aggrecanase inhibitors” (Wyeth LLC, priority 2005, dated 2011).

Key:
[1] = target: T1, purified recombinant human Aggrecanase-1 (rAgg1) (Homo sapiens, UniProt O75173); test: In vitro fluorescence screen for Aggrecanase-1 inhibitors; type: biochemical; conditions: Table 2; read-out: Agg1 IC50
T1 sequence (O75173 213-837): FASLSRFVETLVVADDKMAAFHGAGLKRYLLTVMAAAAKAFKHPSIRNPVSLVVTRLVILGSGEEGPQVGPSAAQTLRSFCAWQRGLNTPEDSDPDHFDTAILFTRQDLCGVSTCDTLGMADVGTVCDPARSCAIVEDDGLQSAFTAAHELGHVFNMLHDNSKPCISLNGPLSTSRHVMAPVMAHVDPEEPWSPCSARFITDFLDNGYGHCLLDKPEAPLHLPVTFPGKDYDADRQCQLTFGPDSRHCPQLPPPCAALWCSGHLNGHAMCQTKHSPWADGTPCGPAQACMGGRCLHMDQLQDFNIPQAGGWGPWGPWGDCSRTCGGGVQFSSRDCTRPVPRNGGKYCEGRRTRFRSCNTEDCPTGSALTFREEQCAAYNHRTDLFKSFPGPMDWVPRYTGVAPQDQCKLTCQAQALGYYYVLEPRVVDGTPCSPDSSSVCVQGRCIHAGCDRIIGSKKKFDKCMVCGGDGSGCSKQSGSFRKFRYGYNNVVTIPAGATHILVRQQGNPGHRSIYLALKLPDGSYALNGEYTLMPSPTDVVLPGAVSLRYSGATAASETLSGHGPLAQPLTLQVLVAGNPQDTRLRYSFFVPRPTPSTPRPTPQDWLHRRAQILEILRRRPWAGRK

[2] = target: T2, purified recombinant human Aggrecanase-2 (Ag2t-Phe628-Strep) (Homo sapiens, UniProt Q9UNA0); test: In vitro fluorescence screen for Aggrecanase-2 inhibitors; type: biochemical; conditions: Table 2; read-out: Agg 2 IC50
T2 construct: the form used is denoted as Ag2t-Phe628-Strep (MW=41,737)
T2 sequence (Q9UNA0 262-628): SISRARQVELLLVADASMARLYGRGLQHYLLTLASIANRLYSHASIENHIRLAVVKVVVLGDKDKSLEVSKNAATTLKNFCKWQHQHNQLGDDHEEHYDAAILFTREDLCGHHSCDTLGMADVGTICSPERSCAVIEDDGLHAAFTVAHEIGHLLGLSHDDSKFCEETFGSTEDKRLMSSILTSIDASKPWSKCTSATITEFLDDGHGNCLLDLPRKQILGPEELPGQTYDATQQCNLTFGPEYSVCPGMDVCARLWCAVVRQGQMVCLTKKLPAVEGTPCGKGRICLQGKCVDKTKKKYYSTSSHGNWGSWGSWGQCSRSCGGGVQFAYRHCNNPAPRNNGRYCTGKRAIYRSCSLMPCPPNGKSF

Compound	IC50 [1]	IC50 [2]
COc1cc(CNC(=O)[C@H](CCC(=O)O)NC(=O)c2ccc(-c3cccc(C(=O)O)c3)cc2)cc(OC)c1OC [Example 17D, 4′-{[((1S)-3-carboxy-1-{[(3,4,5-trimethoxybenzyl)amino]carbonyl}propyl)amino]carbonyl}biphenyl-3-carboxylic acid]	> 17 µM	> 200 µM
CCOc1cccc(-c2ccc(C(=O)N[C@@H](CCC(=O)O)C(=O)NC(C)(C)Cc3ccc(F)cc3)cc2)c1 [Example 17DD, N^2-[(3′-ethoxybiphenyl-4-yl)carbonyl]-N-[2-(4-fluorophenyl)-1,1-dimethylethyl]-L-α-glutamine]	< 0.03 µM	1.19 µM
CCc1ccc(-c2ccc(C(=O)N[C@@H](CCC(=O)O)C(=O)NCc3cc(OC)c(OC)c(OC)c3)cc2)cc1 [Example 17E, N^2-[(4′-ethylbiphenyl-4-yl)carbonyl]-N-(3,4,5-trimethoxybenzyl)-L-α-glutamine]	0.251 µM	1.04 µM
COc1cccc(-c2ccc(C(=O)N[C@@H](CCC(=O)O)C(=O)NC(C)(C)Cc3ccc(F)cc3)cc2)c1 [Example 17EE, N-[2-(4-fluorophenyl)-1,1-dimethylethyl]-N^2-[(3′-methoxybiphenyl-4-yl)carbonyl]-L-α-glutamine]	< 0.03 µM	0.194 µM
COc1ccc(-c2ccc(C(=O)N[C@@H](CCC(=O)O)C(=O)NCc3cc(OC)c(OC)c(OC)c3)cc2)cc1OC [Example 17F, N^2-[(3′,4′-dimethoxybiphenyl-4-yl)carbonyl]-N-(3,4,5-trimethoxybenzyl)-L-α-glutamine]	1.7 µM	~8.3 µM
CC(C)c1cccc(-c2ccc(C(=O)N[C@@H](CCC(=O)O)C(=O)NC(C)(C)Cc3ccc(F)cc3)cc2)c1 [Example 17FF, N-[2-(4-fluorophenyl)-1,1-dimethylethyl]-N^2-[(3′-isopropylbiphenyl-4-yl)carbonyl]-L-α-glutamine]	0.69 µM	13.9 µM
COc1ccc(-c2ccc(C(=O)N[C@@H](CCC(=O)O)C(=O)NCc3cc(OC)c(OC)c(OC)c3)cc2)c(OC)c1 [Example 17G, N^2-[(2′,4′-dimethoxybiphenyl-4-yl)carbonyl]-N-(3,4,5-trimethoxybenzyl)-L-α-glutamine]	1.6 µM	3 to 8 µM
Cc1ccc(-c2ccc(C(=O)N[C@@H](CCC(=O)O)C(=O)NC(C)(C)Cc3ccc(F)cc3)cc2)cc1F [Example 17GG, N^2-[(3′-fluoro-4′-methylbiphenyl-4-yl)carbonyl]-N-[2-(4-fluorophenyl)-1,1-dimethylethyl]-L-α-glutamine]	0.034 µM	0.113 µM
COc1cc(CNC(=O)[C@H](CCC(=O)O)NC(=O)c2ccc(-c3cc(OC)c(OC)c(OC)c3)cc2)cc(OC)c1OC [Example 17H, N-(3,4,5-trimethoxybenzyl)-N^2-[(3′,4′,5′-trimethoxybiphenyl-4-yl)carbonyl]-L-α-glutamine]	1 µM	~22 µM
CC(C)Cc1ccc(-c2ccc(C(=O)N[C@@H](CCC(=O)O)C(=O)NC(C)(C)Cc3ccc(F)cc3)cc2)cc1 [Example 17HH, N-[2-(4-fluorophenyl)-1,1-dimethylethyl]-N^2-[(4′-isobutylbiphenyl-4-yl)carbonyl]-L-α-glutamine]	2.2 µM	6.32 µM
COc1cc(CNC(=O)[C@H](CCC(=O)O)NC(=O)c2ccc(-c3ccc(-c4ccccc4)cc3)cc2)cc(OC)c1OC [Example 17II, N^2-(1,1′:4′,1″-terphenyl-4-ylcarbonyl)-N-(3,4,5-trimethoxybenzyl)-L-α-glutamine]	1 to 3 µM	~10 µM
COc1ccc(-c2ccc(C(=O)N[C@@H](CCC(=O)O)C(=O)NC(C)(C)Cc3ccccc3)cc2)cc1OC [Example 17J, N^2-[(3′,4′-dimethoxybiphenyl-4-yl)carbonyl]-N-(1,1-dimethyl-2-phenylethyl)-L-α-glutamine]	~5.6 µM	~30 µM
O=C(O)CC[C@H](NC(=O)c1ccc(-c2cccc(CO)c2)cc1)C(=O)NCc1ccccc1 [Example 17JJ, N-benzyl-N^2-{[3′-(hydroxymethyl)biphenyl-4-yl]carbonyl}-L-α-glutamine]	2.4 µM	19.5 µM
CCOc1ccccc1-c1ccc(C(=O)N[C@@H](CCC(=O)O)C(=O)NC(C)(C)Cc2ccccc2)cc1 [Example 17K, N-(1,1-dimethyl-2-phenylethyl)-N^2-[(2′-ethoxybiphenyl-4-yl)carbonyl]-L-α-glutamine]	1.2 µM	~3.7 µM
COc1cc(CNC(=O)[C@H](CCC(=O)O)NC(=O)c2ccc(-c3c(C)cc(C)cc3C)cc2)cc(OC)c1OC [Example 17KK, N-(3,4,5-trimethoxybenzyl)-N^2-[(2′,4′,6′-trimethylbiphenyl-4-yl)carbonyl]-L-α-glutamine]	> 25 µM	> 67 µM
Cc1ccc(-c2ccc(C(=O)N[C@@H](CCC(=O)O)C(=O)NC(C)(C)Cc3ccccc3)cc2)cc1F [Example 17L, N-(1,1-dimethyl-2-phenylethyl)-N^2-[(3′-fluoro-4′-methylbiphenyl-4-yl)carbonyl]-L-α-glutamine]	0.133 µM	0.226 µM
CC(C)(Cc1ccccc1)NC(=O)[C@H](CCC(=O)O)NC(=O)c1ccc(-c2ccc(O)cc2)cc1 [Example 17LL, N-(1,1-dimethyl-2-phenylethyl)-N^2-[(4′-hydroxybiphenyl-4-yl)carbonyl]-L-α-glutamine]	0.087 µM	1.19 µM
COc1ccc(-c2ccc(C(=O)NC(CCC(=O)O)C(=O)NCc3cc(OC)c(OC)c(OC)c3)cc2)cc1C (stereo not drawn) [Example 17M, 4-[(4′-Methoxy-3′-methyl-biphenyl-4-carbonyl)-amino]-4-(3,4,5-trimethoxy-benzylcarbamoyl)-butyric acid]	~0.31 µM	> 11 µM
CCOc1cccc(-c2ccc(C(=O)N[C@@H](CCC(=O)O)C(=O)NC(C)(C)Cc3ccccc3)cc2)c1 [Example 17MM, N-(1,1-dimethyl-2-phenylethyl)-N^2-[(3′-ethoxybiphenyl-4-yl)carbonyl]-L-α-glutamine]	0.046 µM	2.71 µM
Cc1cccc(CNC(=O)[C@H](CCC(=O)O)NC(=O)c2ccc(-c3ccc4c(c3)OCO4)cc2)c1 [Example 17NN, N^2-[4-(1,3-benzodioxol-5-yl)benzoyl]-N-(3-methylbenzyl)-L-α-glutamine]	0.2 µM	0.729 µM
O=C(O)CC[C@H](NC(=O)c1ccc(-c2ccc(O)cc2)cc1)C(=O)NCC12CC3CC(CC(C3)C1)C2 [Example 17O, N-(1-adamantylmethyl)-N^2-[(4′-hydroxybiphenyl-4-yl)carbonyl]-L-α-glutamine]	8.5 µM	~22 µM
CC(C)(Cc1ccc(F)cc1)NC(=O)[C@H](CCC(=O)O)NC(=O)c1ccc(-c2ccc(O)cc2)cc1 [Example 17OO, N-[2-(4-fluorophenyl)-1,1-dimethylethyl]-N^2-[(4′-hydroxybiphenyl-4-yl)carbonyl]-L-α-glutamine]	< 0.03 µM	1.68 µM
CC(C)(Cc1ccccc1)NC(=O)[C@H](CCC(=O)O)NC(=O)c1ccc(-c2ccc3c(c2)OCO3)cc1 [Example 17P, N^2-[4-(1,3-benzodioxol-5-yl)benzoyl]-N-(1,1-dimethyl-2-phenylethyl)-L-α-glutamine]	0.126 µM	0.058 µM
COc1ccc(-c2ccc(C(=O)N[C@@H](CCC(=O)O)C(=O)NC(C)(C)Cc3ccccc3)cc2)c(OC)c1 [Example 17Q, N^2-[(2′,4′-dimethoxybiphenyl-4-yl)carbonyl]-N-(1,1-dimethyl-2-phenylethyl)-L-α-glutamine]	~13 µM	> 30 µM
O=C(O)CC[C@H](NC(=O)c1ccc(C#CC2CCC(O)CC2)cc1)C(=O)NCc1ccccc1 (stereo partly drawn) [Example 17QQ, N-benzyl-N^2-{4-[(4-hydroxycyclohexyl)ethynyl]benzoyl}-L-α-glutamine]	> 25 µM	~22 µM
COc1cc(CNC(=O)[C@H](CCC(=O)O)NC(=O)c2ccc(-c3cccc(O)c3)cc2)cc(OC)c1OC [Example 17RR, N^2-[(3′-hydroxybiphenyl-4-yl)carbonyl]-N-(3,4,5-trimethoxybenzyl)-L-α-glutamine]	< 0.03 µM	0.026 µM
CCC(C)c1ccc(-c2ccc(C(=O)N[C@@H](CCC(=O)O)C(=O)NC(C)(C)Cc3ccccc3)cc2)cc1 (stereo partly drawn) [Example 17S, N^2-[(4′-sec-butylbiphenyl-4-yl)carbonyl]-N-(1,1-dimethyl-2-phenylethyl)-L-α-glutamine]	4.6 µM	10.1 µM
